Experimental data: patent US20180110978A1, “SYNERGISTIC REGULATED CELL DEATH INDUCTION WITH HSP90 INHIBITORS AND NANOSECOND PULSED ELECTRIC FIELDS” (Old Dominion University Research Foundation, priority 2015, published 2018)

What was measured:
N1-S1 rat HCC cells = assay: Cell viability of N1-S1 rat HCC cells (CellTiter-Glo) after Hsp90 inhibitor and/or nsPEF; format: cell-based
Method: In some embodiments, N1-S1 rat HCC cells are exposed to an inhibitor of Hsp90 and then exposed to nsPEFs to cause cell death. In these embodiments, using the aforementioned methodology the cells mortality is greater than when either Hsp90 inhibitor or nsPEFs are employed alone. In an example, N1-S1 rat HCC cells are treated with 0.3 μM 17-AAG and incubated for 24 hours. In this example, after the 24 hours incubation period, the N1-S1 rat HCC cells are treated with a single 600 ns pulse with increasing electric field intensities (from about 10 kV/cm to about 60 kV/cm). Further to this example, cell viability is determined employing CellTiter-Glo (available from Promega, Madison, Wis.) 24 hours after pulsing.
In an example, mitochondria membrane potential (ΔΨm) and Ca^2+ influx are determined by employing Tetramethylrhodamine, ethyl ester (TMRE) Assay Kit and green-fluorescent calcium indicator, Fluo-4, respectively, 10 minutes after pulsing. In this example, cell viability is determined employing CellTiter-Glo (available from Promega, Madison, Wis.) 24 hours after pulsing.
In some embodiments, bar 502 illustrates the percentage of cell viability for a control sample where none of the treatments are employed. In these embodiments, bar 504 illustrates the percentage of cell viability when employing an Hsp90 inhibitor at a concentration of 0.3 μM (e.g., 17-AAG) without nsPEFs. Further to these embodiments, bar 506 illustrates the percentage of cell viability when employing only a single 600 nsPEF of 60 kV/cm. Still further to these embodiments, bar 508 illustrates the percentage of cell viability when employing both treatments (0.3 μM 17-AAG and single 600 ns pulse of 60 kV/cm). In an example, N1-S1 HCC cells are employed for the cell viability test.

[1] = system: caspase 3/7 catalytic activity in N1-S1 cells; assay: Caspase 3/7 catalytic activity in N1-S1 cells (Caspase-Glo); format: cell-based, rat
Method: In some embodiments, bar graph 402 represents the percentage change in caspase 3/7 catalytic activity after four (4) hours of incubation with 0.3 μM 17-AAG followed by the application of a single 600 ns pulse at different electric field intensities (from 0 to about 60 kV/cm). In these embodiments, bar graph 432 represents the percentage change in […] after 16 hours of incubation with 0.3 μM 17-AAG followed by the application of a single 600 ns pulse at different electric field intensities (from 0 to about 60 kV/cm).
In some embodiments, N1-S1 cells were incubated with or without 17-AAG for 4 hours or 16 hours to determine a synergistic activation of caspase 3/7 with 17-AAG and nsPEFs. In these embodiments, after the incubation period, N1-S1 cells were then treated with nsPEFs with increasing electric fields (one 600 ns pulse) and assayed for caspase 3/7 catalytic activity two (2) hours after pulsing. In an example, caspase 3/7 catalytic activity is measured employing Caspase-Glo (available from Promega, Madison, Wis.) 2 hours after pulsing.

cleaved caspase 3 = assay: Western blot for cleaved caspase 3 relative to β-actin (LI-COR Odyssey CLx); format: cell-based
Description: FIG. 7 is a graphical representation illustrating western blot test results for cleaved caspase 3 when employing an Hsp90 inhibitor at different concentrations, according to an embodiment. In FIG. 7, western blot test results 700 include stained bands 702 and cleaved caspase 3 fold change graph 708. In FIG. 7, stained bands 702 include cleaved caspase 3 bands 704 and β-actin bands 706. In FIG. 7, cleaved caspase 3 fold change graph 708 includes bars 710, 712, and 714. In an example, the western blot data is quantified using a LI-COR Odyssey CLx imaging system. In FIG. 7, stained bands 702 is a photographic representation depicting an expression of cleaved caspase 3 as a function of concentration of an Hsp90 inhibitor (e.g., AUY922). In FIG. 7, cleaved caspase 3 fold change graph 708 is a graphical representation illustrating fold changes of caspase 3 with respect to β-actin. FIG. 8 is a graphical representation illustrating western blot test results for cleaved caspase 3 when employing an Hsp90 inhibitor alone, nsPEF alone, or a combination of both treatments, according to an embodiment. In FIG. 8, western blot test results 800 include stained bands 802 and caspase 3 fold change graph 808. In FIG. 8, stained bands 802 include cleaved caspase 3 bands 804, β-actin bands 806, and caspase expression 807. In FIG. 8, caspase 3-fold change graph 808 includes bars 810, 812, and 814. In an example, the western blot data is quantified using LI-COR Odyssey CLx imaging system. In some embodiments, stained bands 802 is a photographic representation depicting an expression of cleaved caspase 3 as a function of the treatment employed. In these embodiments, caspase 3 fold change graph 808 is a graphical representation illustrating fold changes of caspase 3 with respect to β-actin.

Structure (SMILES) | cell viability reduction (N1-S1 rat HCC cells; 0.3 μM 17-AAG alone, 24 h incubation, no nsPEF (bar 116, FIG. 1), viability 24 h after pulsing time) | additional increase in the reduction of cell viability (N1-S1 rat HCC cells; 0.3 μM 17-AAG plus nsPEF at about 50 kV/cm (bar 610, FIG. 6)) | percentage of cell viability (N1-S1 rat HCC cells; 0.3 μM 17-AAG plus single 600 ns pulse of 60 kV (bar 508, FIG. 5)) | cells killed (N1-S1 rat HCC cells; cells pre-treated with 0.3 μM 17-AAG, then single 600 ns pulse of 50 kV/cm) [%] | effect of 17-AAG on the nsPEF-induced modest change in catalytic activity ([1]; 0.3 μM 17-AAG 4 h, then 600 ns pulse at higher electric fields 50-60 kV/cm (bars 428, 430)) | effect of 17-AAG on the nsPEF-induced modest change in caspase activity ([1]; 0.3 μM 17-AAG 4 h, then 600 ns pulse at lower electric fields 10-40 kV/cm (bars 420-426)) | change in caspase 3/7 activity ([1]; 0.3 μM 17-AAG alone, 4 hours of incubation (bar 418, FIG. 4)) | change in caspase 3/7 activity ([1]; 0.3 μM 17-AAG, 16 h of incubation, unaffected by nsPEFs (FIG. 4)) | synergistic effects on caspase 3/7 activity of 17-AAG together with nsPEFs ([1]; the two treatments included together) | ratio of caspase 3 to β-actin (fold change) (cleaved caspase 3; 1 μM AUY922, no nsPEF (bar 712, FIG. 7), no AUY922 about 1) | ratio of caspase 3 to β-actin (fold change) (cleaved caspase 3; 1 μM AUY922 alone (bar 814, FIG. 8)) | ratio of caspase 3 to β-actin (fold change) (cleaved caspase 3; 1 μM AUY922 plus nsPEF of 600 ns at 20 kV/cm (bar 812, FIG. 8)) | ratio of caspase 3 to β-actin (fold change) (cleaved caspase 3; 10 μM AUY922, no nsPEF (bar 714, FIG. 7), no AUY922 about 1)
C=CCNC1=C2C[C@@H](C)C[C@H](OC)[C@H](O)[C@@H](C)/C=C(\C)[C@H](OC(N)=O)[C@@H](OC)/C=C\C=C(/C)C(=O)NC(=CC1=O)C2=O [17-AAG] | about 25% | about 45% | about 17% | 80 | no effect | no effect | no significant change | significant increases | no synergistic effects |  |  |  | 
CCNC(=O)c1noc(-c2cc(C(C)C)c(O)cc2O)c1-c1ccc(CN2CCOCC2)cc1 [AUY922] |  |  |  |  |  |  |  |  |  | about 2 | ~3 | about 7 | about 7
